Assay results from the NIST ThermoML archive (doi:10.1016/j.fluid.2008.03.004).

Assay: xn = mol fraction of the nth substance listed
Settings: 101 kPa, Liquid; for speed of sound: Sing-around technique in a fixed-path interferometer

Cc1cccc(C)c1 [1,3-dimethylbenzene] + COC(C)(C)C
Settings | mass density [kg/m3] | speed of sound [m/s]
305.65 K, x2 = 0 | 853.441 | –
305.65 K, x2 = 0.047 | 848.1 | –
305.65 K, x2 = 0.115 | 840.172 | –
305.65 K, x2 = 0.212 | 828.758 | –
305.65 K, x2 = 0.304 | 817.815 | –
305.65 K, x2 = 0.399 | 806.139 | –
305.65 K, x2 = 0.5 | 793.525 | –
305.65 K, x2 = 0.601 | 780.692 | –
305.65 K, x2 = 0.651 | 774.141 | –
305.65 K, x2 = 0.794 | 755.009 | –
305.65 K, x2 = 0.898 | 740.889 | –
305.65 K, x2 = 0.954 | 733.146 | –
308.15 K, x2 = 0 | 851.282 | 1279.8
308.15 K, x2 = 0.047 | 845.927 | 1267.6
308.15 K, x2 = 0.115 | 837.974 | 1249.3
308.15 K, x2 = 0.212 | 826.519 | 1222.5
308.15 K, x2 = 0.304 | 815.538 | 1197.2
308.15 K, x2 = 0.399 | 803.818 | 1170.3
308.15 K, x2 = 0.5 | 791.157 | 1141.6
308.15 K, x2 = 0.601 | 778.273 | 1112
308.15 K, x2 = 0.651 | 771.692 | 1096.4
308.15 K, x2 = 0.794 | 752.457 | 1053.3
308.15 K, x2 = 0.898 | 738.286 | 1021.4
308.15 K, x2 = 0.954 | 730.505 | 1004.8
310.65 K, x2 = 0 | 849.122 | 1269.6
310.65 K, x2 = 0.047 | 843.75 | 1257.3
310.65 K, x2 = 0.115 | 835.768 | 1239.1
310.65 K, x2 = 0.212 | 824.276 | 1212.1
310.65 K, x2 = 0.304 | 813.255 | 1186.8
310.65 K, x2 = 0.399 | 801.494 | 1159.8
310.65 K, x2 = 0.5 | 788.781 | 1130.9
310.65 K, x2 = 0.601 | 775.847 | 1101.1
310.65 K, x2 = 0.651 | 769.237 | 1085.5
310.65 K, x2 = 0.794 | 749.912 | 1042.3
310.65 K, x2 = 0.898 | 735.671 | 1010.1
310.65 K, x2 = 0.954 | 727.852 | 993.4
313.15 K, x2 = 0 | 846.958 | 1259.5
313.15 K, x2 = 0.047 | 841.566 | 1247.2
313.15 K, x2 = 0.115 | 833.56 | 1228.8
313.15 K, x2 = 0.212 | 822.027 | 1201.8
313.15 K, x2 = 0.304 | 810.966 | 1176.3
313.15 K, x2 = 0.399 | 799.161 | 1149.3
313.15 K, x2 = 0.5 | 786.398 | 1120.3
313.15 K, x2 = 0.601 | 773.412 | 1090.2
313.15 K, x2 = 0.651 | 766.771 | 1074.7
313.15 K, x2 = 0.794 | 747.356 | 1031.2
313.15 K, x2 = 0.898 | 733.042 | 998.84
313.15 K, x2 = 0.954 | 725.183 | 981.87
315.65 K, x2 = 0 | 844.792 | 1249.3
315.65 K, x2 = 0.047 | 839.381 | 1237
315.65 K, x2 = 0.115 | 831.348 | 1218.6
315.65 K, x2 = 0.212 | 819.775 | 1191.5
315.65 K, x2 = 0.304 | 808.673 | 1165.9
315.65 K, x2 = 0.399 | 796.825 | 1138.8
315.65 K, x2 = 0.5 | 784.01 | 1109.7
315.65 K, x2 = 0.601 | 770.967 | 1079.5
315.65 K, x2 = 0.651 | 764.3 | 1063.9
315.65 K, x2 = 0.794 | 744.791 | 1020.2
315.65 K, x2 = 0.898 | 730.402 | 987.66
315.65 K, x2 = 0.954 | 722.504 | 970.42
318.15 K, x2 = 0 | 842.622 | 1239.3
318.15 K, x2 = 0.047 | 837.193 | 1226.9
318.15 K, x2 = 0.115 | 829.131 | 1208.5
318.15 K, x2 = 0.212 | 817.518 | 1181.2
318.15 K, x2 = 0.304 | 806.375 | 1155.6
318.15 K, x2 = 0.399 | 794.481 | 1128.3
318.15 K, x2 = 0.5 | 781.614 | 1099.1
318.15 K, x2 = 0.601 | 768.518 | 1068.8
318.15 K, x2 = 0.651 | 761.816 | 1053.1
318.15 K, x2 = 0.794 | 742.213 | 1009.3
318.15 K, x2 = 0.898 | 727.749 | 976.53
318.15 K, x2 = 0.954 | 719.811 | 959.09
320.65 K, x2 = 0 | 840.452 | 1229.3
320.65 K, x2 = 0.047 | 835 | 1216.9
320.65 K, x2 = 0.115 | 826.912 | 1198.3
320.65 K, x2 = 0.212 | 815.256 | 1171
320.65 K, x2 = 0.304 | 804.075 | 1145.3
320.65 K, x2 = 0.399 | 792.132 | 1118
320.65 K, x2 = 0.5 | 779.21 | 1088.6
320.65 K, x2 = 0.601 | 766.061 | 1058.2
320.65 K, x2 = 0.651 | 759.325 | 1042.4
320.65 K, x2 = 0.794 | 739.628 | 998.4
320.65 K, x2 = 0.898 | 725.085 | 965.42
320.65 K, x2 = 0.954 | 717.105 | 947.81
323.15 K, x2 = 0 | 838.289 | 1219.5
323.15 K, x2 = 0.047 | 832.812 | 1207
323.15 K, x2 = 0.115 | 824.696 | 1188.4
323.15 K, x2 = 0.212 | 813.002 | 1161.1
323.15 K, x2 = 0.304 | 801.776 | 1135.1
323.15 K, x2 = 0.399 | 789.785 | 1107.7
323.15 K, x2 = 0.5 | 776.809 | 1078.2
323.15 K, x2 = 0.601 | 763.606 | 1047.7
323.15 K, x2 = 0.651 | 756.839 | 1031.9
323.15 K, x2 = 0.794 | 737.044 | 987.59
323.15 K, x2 = 0.898 | 722.414 | 954.46
323.15 K, x2 = 0.954 | 714.398 | 936.68
